# Test results reported in PubChem BioAssay AID248 (DTP/NCI, 2004).
# Toxic doses and inconclusive results are not listed.
# Tested on: L1210 leukemia ip in BDF1 mice, survival T/C
# Experiment: NCI In Vivo Anticancer Drug Screen. Data for tumor model L1210 Leukemia (intraperitoneal) in B6D2F1 (BDF1) mice
# Details: higher = longer survival
# Summary of the method: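 Transplantable tumor model; survival measured in treated vs vehicle control mice. Value = treated/control.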
# [1] = endpoint: mean survival time, dose: 100.0 mg/kg/injection, schedule: Q01DX001 (ip), vehicle: carboxymethylcellulose (CMC)
# [2] = endpoint: mean survival time, dose: 200.0 mg/kg/injection, schedule: Q01DX001 (ip), vehicle: carboxymethylcellulose (CMC)
smiles,measurement,setting,value
N#C/C(=N\N=Nc1ccccc1)c1ccccc1,T/C,"endpoint: mean survival time, dose: 1.5 mg/kg/injection, schedule: Q01DX009 (ip), vehicle: DMSO",90 % of control
same,T/C,"endpoint: mean survival time, dose: 6.0 mg/kg/injection, schedule: Q01DX009 (ip), vehicle: DMSO",92 % of control
same,T/C,"endpoint: mean survival time, dose: 12.5 mg/kg/injection, schedule: Q01DX009 (ip), vehicle: DMSO",98 % of control
same,T/C,"endpoint: mean survival time, dose: 12.5 mg/kg/injection, schedule: Q04DX003 (ip), vehicle: DMSO",98 % of control
same,T/C,"endpoint: mean survival time, dose: 25.0 mg/kg/injection, schedule: Q04DX003 (ip), vehicle: DMSO",98 % of control
same,T/C,"endpoint: mean survival time, dose: 50.0 mg/kg/injection, schedule: Q04DX003 (ip), vehicle: DMSO",102 % of control
CCOC(=O)c1cc(C(=O)O)[nH]c(=O)c1C#N,T/C,"endpoint: mean survival time, dose: 100.0 mg/kg/injection, schedule: Q04DX003 (ip), vehicle: saline with Tween-80",97 % of control
same,T/C,"endpoint: mean survival time, dose: 400.0 mg/kg/injection, schedule: Q04DX003 (ip), vehicle: saline with Tween-80",95 % of control
CSc1nc(C)c(Br)c(Sc2nc(N)nc3nc[nH]c23)n1,T/C,"endpoint: mean survival time, dose: 100.0 mg/kg/injection, schedule: Q01DX Z (ip), vehicle: methylcellulose (MC)",87 % of control
CCCCCN(C)/N=N/c1nc[nH]c1C(N)=O,T/C,"endpoint: mean survival time, dose: 7.5 mg/kg/injection, schedule: Q01DX Z (ip), vehicle: carboxymethylcellulose (CMC)",102 % of control
same,T/C,"endpoint: mean survival time, dose: 10.0 mg/kg/injection, schedule: Q01DX Z (ip), vehicle: carboxymethylcellulose (CMC)",110 % of control
same,T/C,"endpoint: mean survival time, dose: 11.0 mg/kg/injection, schedule: Q01DX009 (ip), vehicle: carboxymethylcellulose (CMC)",101 % of control
same,T/C,"endpoint: mean survival time, dose: 15.0 mg/kg/injection, schedule: Q01DX Z (ip), vehicle: carboxymethylcellulose (CMC)",119 % of control
same,T/C,"endpoint: mean survival time, dose: 16.75 mg/kg/injection, schedule: Q01DX009 (ip), vehicle: carboxymethylcellulose (CMC)",100 % of control
same,T/C,"endpoint: mean survival time, dose: 25.0 mg/kg/injection, schedule: Q01DX009 (ip), vehicle: carboxymethylcellulose (CMC)",118 % of control
same,T/C,"endpoint: mean survival time, dose: 37.5 mg/kg/injection, schedule: Q01DX009 (ip), vehicle: carboxymethylcellulose (CMC)",124 % of control
same,T/C,"endpoint: mean survival time, dose: 75.0 mg/kg/injection, schedule: Q01DX Z (ip), vehicle: carboxymethylcellulose (CMC)",117 % of control
same,T/C,[1],119 % of control
same,T/C,"endpoint: mean survival time, dose: 100.0 mg/kg/injection, schedule: Q01DX009 (ip), vehicle: carboxymethylcellulose (CMC)",154 % of control
same,T/C,"endpoint: mean survival time, dose: 120.0 mg/kg/injection, schedule: Q01DX015 (ip), vehicle: carboxymethylcellulose (CMC)",96 % of control
same,T/C,"endpoint: mean survival time, dose: 178.0 mg/kg/injection, schedule: Q01DX001 (ip), vehicle: carboxymethylcellulose (CMC)",108 % of control
same,T/C,[2],152 % of control
same,T/C,"endpoint: mean survival time, dose: 267.0 mg/kg/injection, schedule: Q01DX001 (ip), vehicle: carboxymethylcellulose (CMC)",117 % of control
same,T/C,"endpoint: mean survival time, dose: 600.0 mg/kg/injection, schedule: Q01DX001 (ip), vehicle: carboxymethylcellulose (CMC)",123 % of control
same,T/C,"endpoint: median survival time, dose: 12.5 mg/kg/injection, schedule: Q01DX011 (ip), vehicle: steriod suspending solution",112 % of control
same,T/C,"endpoint: median survival time, dose: 25.0 mg/kg/injection, schedule: Q01DX011 (ip), vehicle: steriod suspending solution",112 % of control
same,T/C,"endpoint: median survival time, dose: 100.0 mg/kg/injection, schedule: Q01DX011 (ip), vehicle: steriod suspending solution",218 % of control
Cc1cccc(NC(=O)N2CCN(c3ccccc3)CC2)c1,T/C,"endpoint: mean survival time, dose: 50.0 mg/kg/injection, schedule: Q01DX001 (ip), vehicle: carboxymethylcellulose (CMC)",106 % of control
same,T/C,[1],101 % of control
same,T/C,[2],101 % of control
same,T/C,"endpoint: mean survival time, dose: 400.0 mg/kg/injection, schedule: Q01DX001 (ip), vehicle: carboxymethylcellulose (CMC)",104 % of control
O=C(Nc1cc(S(=O)(=O)F)ccc1Cl)c1ccc2ccccc2c1O,T/C,"endpoint: mean survival time, dose: 100.0 mg/kg/injection, schedule: Q01DX009 (ip), vehicle: Klucel (hydroxypropylcellulose) (HPC)",97 % of control
same,T/C,"endpoint: mean survival time, dose: 100.0 mg/kg/injection, schedule: Q04DX003 (ip), vehicle: Klucel (hydroxypropylcellulose) (HPC)",91 % of control
same,T/C,"endpoint: mean survival time, dose: 200.0 mg/kg/injection, schedule: Q01DX009 (ip), vehicle: Klucel (hydroxypropylcellulose) (HPC)",101 % of control
same,T/C,"endpoint: mean survival time, dose: 200.0 mg/kg/injection, schedule: Q04DX003 (ip), vehicle: Klucel (hydroxypropylcellulose) (HPC)",98 % of control
same,T/C,"endpoint: mean survival time, dose: 400.0 mg/kg/injection, schedule: Q01DX009 (ip), vehicle: Klucel (hydroxypropylcellulose) (HPC)",95 % of control
same,T/C,"endpoint: mean survival time, dose: 400.0 mg/kg/injection, schedule: Q04DX003 (ip), vehicle: Klucel (hydroxypropylcellulose) (HPC)",104 % of control
CC(=O)C(=O)Nc1ccccc1,T/C,"endpoint: mean survival time, dose: 100.0 mg/kg/injection, schedule: Q01DX001 (ip), vehicle: saline with Tween-80",94 % of control
same,T/C,"endpoint: mean survival time, dose: 200.0 mg/kg/injection, schedule: Q01DX001 (ip), vehicle: saline with Tween-80",91 % of control
same,T/C,"endpoint: mean survival time, dose: 400.0 mg/kg/injection, schedule: Q01DX001 (ip), vehicle: saline with Tween-80",94 % of control
